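Following 48 hours of exposure in 96-well plates, responses at five concentrations were used to interpolate endpoints linearly. GI50 marks 50% less growth.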 Activity calls are given as the source filed them. No stated cut-off is given here; in the data, active = GI50 up to about 1.1 µM and inactive = higher.
Tests used:
Experiment in all cases: DTP human tumour cell line panel, 48 h
U-251 = test system: U-251
NCI-H522 = test system: NCI-H522
PC-3 = test system: PC-3
SK-MEL-2 = test system: SK-MEL-2
MDA-MB-435 = test system: MDA-MB-435
CAKI-1 = test system: CAKI-1
COLO 205 = test system: COLO 205
A498 = test system: A498
UACC-257 = test system: UACC-257
BT-549 = test system: BT-549
HCT-15 = test system: HCT-15
RXF 393 = test system: RXF 393
SF-539 = test system: SF-539
SF-268 = test system: SF-268
Hs-578T = test system: Hs-578T
OVCAR-4 = test system: OVCAR-4
HL-60 = test system: HL-60
UACC-62 = test system: UACC-62
HT-29 = test system: HT-29
T47D = test system: T47D

SMILES	GI50 (U-251)	GI50 (NCI-H522)	GI50 (PC-3)	GI50 (SK-MEL-2)	GI50 (MDA-MB-435)	GI50 (CAKI-1)	GI50 (COLO 205)	GI50 (A498)	GI50 (UACC-257)	GI50 (BT-549)	GI50 (HCT-15)	GI50 (RXF 393)	GI50 (SF-539)	GI50 (SF-268)	GI50 (Hs-578T)	GI50 (OVCAR-4)	GI50 (HL-60)	GI50 (UACC-62)	GI50 (HT-29)	GI50 (T47D)
Oc1cc(-c2cccc(OCc3ccccc3)c2)nc2cc3c(cc12)OCO3	245 nM (active)	268 nM (active)	327 nM (active)	301 nM (active)	90.2 nM (active)	673 nM (active)	1310 nM (inactive)	256 nM (active)	14700 nM (inactive)	469 nM (active)	376 nM	330 nM (active)	252 nM (active)	8340 nM (inactive)	303 nM (active)	2810 nM (inactive)	93.5 nM (active)	370 nM (active)	2010 nM (inactive)	> 52000 nM (inactive)
CC(OP(=O)(O)O)C(N)C(=O)O (stereo not given)	> 100000 nM (inactive)	> 100000 nM (inactive)	> 100000 nM (inactive)	> 100000 nM (inactive)	> 100000 nM (inactive)	> 100000 nM (inactive)	> 100000 nM (inactive)	> 100000 nM (inactive)	> 100000 nM (inactive)	> 100000 nM (inactive)	> 100000 nM	> 100000 nM (inactive)	> 100000 nM (inactive)	> 100000 nM (inactive)	> 100000 nM (inactive)	> 100000 nM (inactive)	> 100000 nM (inactive)	> 100000 nM (inactive)	> 100000 nM (inactive)	> 100000 nM (inactive)
COc1ccc2c(c1)/C(=C\c1c(Cl)[nH]c3cc(C)c(OC)cc13)C(=O)N2	653 nM (active)	1190 nM (inactive)	807 nM (active)	713 nM (active)	198 nM (active)	1460 nM (inactive)	1030 nM (active)	830 nM (active)	2630 nM (inactive)	679 nM (active)	467 nM	891 nM (active)	266 nM (active)	986 nM (active)	667 nM (active)	1450 nM (inactive)	435 nM (active)	434 nM (active)	889 nM (active)	12900 nM (inactive)
